From US9204653B2, “5-fluoro pyrimidine derivatives” (DOW AGROSCIENCES LLC, priority 2008, dated 2015)
Where two headings read alike, the source gives them in different places.

Test system: Mycosphaerella graminicola; Anamorph: Septoria tritici; Bayer Code SEPTTR
Assay: Leaf blotch of wheat, foliar fungicide treatment, one day protectant (1DP) or three day curative (3DC)
Assay type: in vivo, Septoria tritici on wheat plants (variety Yuma)
Details: Zymoseptoria tritici, rating of percent disease control
[1] = 24 h, one day protectant (1DP), read-out: SETTTR 1DP 25 ppm
[2] = 24 h, one day protectant (1DP), read-out: SEPTTR 1DP 100 ppm
[3] = 72 h, three day curative (3DC), read-out: SEPTTR 3DC 25 ppm
[4] = 72 h, three day curative (3DC), read-out: SEPTTR 3DC 100 ppm

Structure (SMILES): CN(/C=N/c1nc(OCc2ccc(F)cc2)ncc1F)Cc1ccccc1 [Compound 292]
- pest or weed control at 25 ppm [1]: 76 to 100%
- pest or weed control at 100 ppm [2]: 76 to 100%
- pest or weed control at 25 ppm [3]: 76 to 100%
- pest or weed control at 100 ppm [4]: 76 to 100%

Structure (SMILES): O=C(NNc1nc(OCc2ccccc2)ncc1F)c1ccccc1 [Compound 293]
- pest or weed control at 25 ppm [1]: 0 to 25%
- pest or weed control at 100 ppm [2]: 0 to 25%
- pest or weed control at 25 ppm [3]: 0 to 25%
- pest or weed control at 100 ppm [4]: 0 to 25%

Structure (SMILES): COc1cccc(COc2ncc(F)c(NNC3CCCCC3)n2)c1 [Compound 294]
- pest or weed control at 25 ppm [1]: 0 to 25%
- pest or weed control at 100 ppm [2]: 76 to 100%
- pest or weed control at 25 ppm [3]: 0 to 25%
- pest or weed control at 100 ppm [4]: 76 to 100%

Structure (SMILES): CCOC(=O)COC(=O)Nc1nc(OCc2ccc(F)cc2)ncc1F [Compound 295]
- pest or weed control at 25 ppm [1]: 76 to 100%
- pest or weed control at 100 ppm [2]: 76 to 100%
- pest or weed control at 25 ppm [3]: 76 to 100%
- pest or weed control at 100 ppm [4]: 76 to 100%

Structure (SMILES): Cc1cc(Oc2ncc(F)c(N)n2)cc(C)n1 [Compound 296]
- pest or weed control at 25 ppm [1]: 0 to 25%
- pest or weed control at 100 ppm [2]: 0 to 25%
- pest or weed control at 25 ppm [3]: 0 to 25%
- pest or weed control at 100 ppm [4]: 26 to 50%

Structure (SMILES): O=C(Nc1nc(OCc2ccccc2)ncc1F)OCc1ccccc1 [Compound 298]
- pest or weed control at 25 ppm [1]: 76 to 100%
- pest or weed control at 100 ppm [2]: 76 to 100%
- pest or weed control at 25 ppm [3]: 76 to 100%
- pest or weed control at 100 ppm [4]: 76 to 100%

Structure (SMILES): COc1ccccc1COc1ncc(F)c(N)n1 [Compound 300]
- pest or weed control at 25 ppm [1]: 76 to 100%
- pest or weed control at 100 ppm [2]: 76 to 100%
- pest or weed control at 25 ppm [3]: 76 to 100%
- pest or weed control at 100 ppm [4]: 76 to 100%

Structure (SMILES): C/C(=N\Nc1nc(OCc2ccc(C)cc2)ncc1F)c1ccc(Cl)nc1 [Compound 301]
- pest or weed control at 25 ppm [1]: 26 to 50%
- pest or weed control at 100 ppm [2]: 26 to 50%
- pest or weed control at 25 ppm [3]: 51 to 75%
- pest or weed control at 100 ppm [4]: 76 to 100%

Structure (SMILES): CN(C)/C=N/c1nc(OCc2cccc(N)c2)ncc1F [Compound 303]
- pest or weed control at 25 ppm [1]: 26 to 50%
- pest or weed control at 100 ppm [2]: 76 to 100%
- pest or weed control at 25 ppm [3]: 51 to 75%
- pest or weed control at 100 ppm [4]: 76 to 100%

Structure (SMILES): COc1cccc(COc2ncc(F)c(NNc3ccccc3)n2)c1 [Compound 306]
- pest or weed control at 25 ppm [1]: 0 to 25%
- pest or weed control at 100 ppm [2]: 76 to 100%
- pest or weed control at 25 ppm [3]: 26 to 50%
- pest or weed control at 100 ppm [4]: 26 to 50%

Structure (SMILES): Nc1nc(OCc2cn3ccccc3n2)ncc1F [Compound 307]
- pest or weed control at 25 ppm [1]: 76 to 100%
- pest or weed control at 100 ppm [2]: 76 to 100%
- pest or weed control at 25 ppm [3]: 76 to 100%
- pest or weed control at 100 ppm [4]: 76 to 100%

Structure (SMILES): Nc1nc(OCc2ccnc(Cl)c2)ncc1F [Compound 308]
- pest or weed control at 25 ppm [1]: 76 to 100%
- pest or weed control at 100 ppm [2]: 76 to 100%
- pest or weed control at 25 ppm [3]: 76 to 100%
- pest or weed control at 100 ppm [4]: 76 to 100%

Structure (SMILES): COc1ccccc1COc1ncc(F)c(NC(C)=O)n1 [Compound 309]
- pest or weed control at 25 ppm [1]: 76 to 100%
- pest or weed control at 100 ppm [2]: 76 to 100%
- pest or weed control at 25 ppm [3]: 76 to 100%
- pest or weed control at 100 ppm [4]: 76 to 100%

Structure (SMILES): Nc1nc(ON=C(c2ccccc2)c2ccccc2)ncc1F [Compound 312]
- pest or weed control at 25 ppm [1]: 76 to 100%
- pest or weed control at 100 ppm [2]: 76 to 100%
- pest or weed control at 25 ppm [3]: 76 to 100%
- pest or weed control at 100 ppm [4]: 76 to 100%

Structure (SMILES): CCOC(=O)Nc1nc(OCc2cccc(C#N)c2)ncc1F [Compound 314]
- pest or weed control at 25 ppm [1]: 76 to 100%
- pest or weed control at 100 ppm [2]: 76 to 100%
- pest or weed control at 25 ppm [3]: 76 to 100%
- pest or weed control at 100 ppm [4]: 76 to 100%

Structure (SMILES): COCCCOc1ncc(F)c(N)n1 [Compound 315]
- pest or weed control at 25 ppm [1]: 51 to 75%
- pest or weed control at 100 ppm [2]: 76 to 100%
- pest or weed control at 25 ppm [3]: 76 to 100%
- pest or weed control at 100 ppm [4]: 76 to 100%

Structure (SMILES): COc1ccccc1COc1ncc(F)c(/N=C2\CCCCN2C)n1 [Compound 317]
- pest or weed control at 25 ppm [1]: 51 to 75%
- pest or weed control at 100 ppm [2]: 76 to 100%
- pest or weed control at 25 ppm [3]: 26 to 50%
- pest or weed control at 100 ppm [4]: 76 to 100%

Structure (SMILES): Cn1nc(-c2ccccc2)nc1-c1ccccc1COc1ncc(F)c(N)n1 [Compound 320]
- pest or weed control at 25 ppm [1]: 0 to 25%
- pest or weed control at 100 ppm [2]: 0 to 25%
- pest or weed control at 25 ppm [3]: 26 to 50%
- pest or weed control at 100 ppm [4]: 26 to 50%

Structure (SMILES): COCCCOc1ncc(F)c(NC(C)=O)n1 [Compound 321]
- pest or weed control at 25 ppm [1]: 76 to 100%
- pest or weed control at 100 ppm [2]: 76 to 100%
- pest or weed control at 25 ppm [3]: 76 to 100%
- pest or weed control at 100 ppm [4]: 76 to 100%

Structure (SMILES): Oc1ncc(F)c(N/N=C/c2ccccc2Cl)n1 [Compound 322]
- pest or weed control at 25 ppm [1]: 0 to 25%
- pest or weed control at 100 ppm [2]: 0 to 25%
- pest or weed control at 25 ppm [3]: 0 to 25%
- pest or weed control at 100 ppm [4]: 0 to 25%

Structure (SMILES): Cc1ccc(COc2ncc(F)c(N)n2)c(C)c1 [Compound 323]
- pest or weed control at 25 ppm [1]: 76 to 100%
- pest or weed control at 100 ppm [2]: 76 to 100%
- pest or weed control at 25 ppm [3]: 76 to 100%
- pest or weed control at 100 ppm [4]: 76 to 100%

Structure (SMILES): O=[N+]([O-])c1ccccc1SNc1nc(OCc2ccc(F)c(F)c2)ncc1F [Compound 324]
- pest or weed control at 25 ppm [1]: 76 to 100%
- pest or weed control at 100 ppm [2]: 76 to 100%
- pest or weed control at 25 ppm [3]: 0 to 25%
- pest or weed control at 100 ppm [4]: 26 to 50%

Structure (SMILES): Cc1ccc(COc2ncc(F)c(NO)n2)cc1 [Compound 325]
- pest or weed control at 25 ppm [1]: 76 to 100%
- pest or weed control at 100 ppm [2]: 76 to 100%
- pest or weed control at 25 ppm [3]: 76 to 100%
- pest or weed control at 100 ppm [4]: 76 to 100%

Structure (SMILES): CN1CCCC/C1=N\c1nc(OCc2cccc(F)c2)ncc1F [Compound 326]
- pest or weed control at 25 ppm [1]: 76 to 100%
- pest or weed control at 100 ppm [2]: 76 to 100%
- pest or weed control at 25 ppm [3]: 51 to 75%
- pest or weed control at 100 ppm [4]: 76 to 100%

Structure (SMILES): COc1cccc(COc2ncc(F)c(/N=C3\CCCCN3C)n2)c1 [Compound 327]
- pest or weed control at 25 ppm [1]: 51 to 75%
- pest or weed control at 100 ppm [2]: 76 to 100%
- pest or weed control at 25 ppm [3]: 51 to 75%
- pest or weed control at 100 ppm [4]: 76 to 100%

Structure (SMILES): CCOc1ccccc1COc1ncc(F)c(N)n1 [Compound 328]
- pest or weed control at 25 ppm [1]: 76 to 100%
- pest or weed control at 100 ppm [2]: 76 to 100%
- pest or weed control at 25 ppm [3]: 76 to 100%
- pest or weed control at 100 ppm [4]: 76 to 100%

Structure (SMILES): COc1ccccc1COc1ncc(F)c(NC(=O)Nc2ccccc2F)n1 [Compound 329]
- pest or weed control at 25 ppm [1]: 0 to 25%
- pest or weed control at 100 ppm [2]: 0 to 25%
- pest or weed control at 25 ppm [3]: 0 to 25%
- pest or weed control at 100 ppm [4]: 0 to 25%

Structure (SMILES): Fc1cnc(OCc2ccccc2)nc1NCOCc1ccccc1 [Compound 330]
- pest or weed control at 25 ppm [1]: 0 to 25%
- pest or weed control at 100 ppm [2]: 76 to 100%
- pest or weed control at 25 ppm [3]: 0 to 25%
- pest or weed control at 100 ppm [4]: 26 to 50%

Structure (SMILES): CCOCNc1nc(OCc2ccccc2OC)ncc1F [Compound 331]
- pest or weed control at 25 ppm [1]: 76 to 100%
- pest or weed control at 100 ppm [2]: 76 to 100%
- pest or weed control at 25 ppm [3]: 76 to 100%
- pest or weed control at 100 ppm [4]: 76 to 100%

Structure (SMILES): O=C(Nc1ccccc1)Nc1nc(OCc2cccc(F)c2)ncc1F [Compound 332]
- pest or weed control at 25 ppm [1]: 76 to 100%
- pest or weed control at 100 ppm [2]: 76 to 100%
- pest or weed control at 25 ppm [3]: 51 to 75%
- pest or weed control at 100 ppm [4]: 26 to 50%

Structure (SMILES): COc1cccc(COc2ncc(F)c(-n3ccnc3)n2)c1 [Compound 334]
- pest or weed control at 25 ppm [1]: 76 to 100%
- pest or weed control at 100 ppm [2]: 76 to 100%
- pest or weed control at 25 ppm [3]: 76 to 100%
- pest or weed control at 100 ppm [4]: 76 to 100%

Structure (SMILES): CC(Oc1ncc(F)c(/N=C/N2CCOCC2)n1)c1ccc(F)cc1 (stereo not shown) [Compound 338]
- pest or weed control at 25 ppm [1]: 76 to 100%
- pest or weed control at 100 ppm [2]: 76 to 100%
- pest or weed control at 25 ppm [3]: 76 to 100%
- pest or weed control at 100 ppm [4]: 76 to 100%

Structure (SMILES): CNc1nc(OCc2ccc(OC)cc2)ncc1F [Compound 339]
- pest or weed control at 25 ppm [1]: 0 to 25%
- pest or weed control at 100 ppm [2]: 26 to 50%
- pest or weed control at 25 ppm [3]: 26 to 50%
- pest or weed control at 100 ppm [4]: 51 to 75%

Structure (SMILES): CCN(N)c1nc(OCc2cccc(OC)c2)ncc1F [Compound 340]
- pest or weed control at 25 ppm [1]: 0 to 25%
- pest or weed control at 100 ppm [2]: 76 to 100%
- pest or weed control at 25 ppm [3]: 26 to 50%
- pest or weed control at 100 ppm [4]: 76 to 100%
